ChEMBL document CHEMBL4477225, “Development of a cell viability assay to assess drug metabolite structure-toxicity relationships” (Bioorg Med Chem Lett, 2016)

How the values were obtained:
Conditions in all cases: recombinant enzyme
[1] = biological target: T1, Cytochrome P450 3A4 (Homo sapiens, UniProt P08684); assay: (§1) Drug activation in human Hep3B cells assessed as human CYP3A4-mediated drug metabolism-induced cytotoxicity measured as decrease in cell viability at 83.8 uM pre-incubated with BSO for 18 hrs followed by incubation with compound for 3 hrs in presence of NADPH measured after 24 hrs in absence of compound, CYP3A4 and NADPH by cell titer-glo luminescence assay relative to BSO alone; type: ADME, cell-based
T1 sequence (P08684 whole entry): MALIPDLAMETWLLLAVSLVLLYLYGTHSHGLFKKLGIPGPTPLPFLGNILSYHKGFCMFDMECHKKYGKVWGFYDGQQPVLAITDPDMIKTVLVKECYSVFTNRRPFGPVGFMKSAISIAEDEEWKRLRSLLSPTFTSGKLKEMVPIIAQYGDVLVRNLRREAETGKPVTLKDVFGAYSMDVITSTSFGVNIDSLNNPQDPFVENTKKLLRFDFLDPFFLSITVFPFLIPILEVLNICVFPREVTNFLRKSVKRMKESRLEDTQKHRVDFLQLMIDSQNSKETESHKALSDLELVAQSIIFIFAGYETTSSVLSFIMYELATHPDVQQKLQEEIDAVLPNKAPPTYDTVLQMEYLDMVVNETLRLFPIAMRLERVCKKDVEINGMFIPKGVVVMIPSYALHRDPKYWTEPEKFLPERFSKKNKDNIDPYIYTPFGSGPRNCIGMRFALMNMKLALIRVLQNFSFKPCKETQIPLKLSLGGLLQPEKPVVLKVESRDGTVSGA

[2] = biological target: T2, Cytochrome P450 2D6 (Homo sapiens, UniProt P10635); assay: as §1, with “CYP2D6-mediated” for “CYP3A4-mediated”, “193.1” for “83.8”; type: ADME, cell-based
T2 sequence (P10635 whole entry): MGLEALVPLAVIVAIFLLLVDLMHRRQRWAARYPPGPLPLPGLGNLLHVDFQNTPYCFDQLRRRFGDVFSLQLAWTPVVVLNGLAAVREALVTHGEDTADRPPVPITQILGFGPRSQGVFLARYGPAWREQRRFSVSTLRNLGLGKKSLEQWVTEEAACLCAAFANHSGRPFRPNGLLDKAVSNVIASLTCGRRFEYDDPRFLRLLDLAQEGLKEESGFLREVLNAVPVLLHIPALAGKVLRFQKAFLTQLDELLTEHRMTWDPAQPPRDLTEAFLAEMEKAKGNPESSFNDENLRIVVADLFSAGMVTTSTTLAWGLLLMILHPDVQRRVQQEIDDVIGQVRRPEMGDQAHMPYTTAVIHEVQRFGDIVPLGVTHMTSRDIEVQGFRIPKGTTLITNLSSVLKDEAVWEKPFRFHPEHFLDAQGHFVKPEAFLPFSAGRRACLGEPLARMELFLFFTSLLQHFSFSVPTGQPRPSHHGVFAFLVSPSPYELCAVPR

[3] = biological target: T1, Cytochrome P450 3A4; assay: as §1, with “150.3” for “83.8”; type: ADME, cell-based
[4] = biological target: T2, Cytochrome P450 2D6; assay: as §1, with “CYP2D6-mediated” for “CYP3A4-mediated”, “7” for “83.8”; type: ADME, cell-based
[5] = biological target: T3, Cytochrome P450 2C9 (Homo sapiens, UniProt P11712); assay: as §1, with “CYP2C9-mediated” for “CYP3A4-mediated”, “300” for “83.8”
T3 sequence (P11712 whole entry): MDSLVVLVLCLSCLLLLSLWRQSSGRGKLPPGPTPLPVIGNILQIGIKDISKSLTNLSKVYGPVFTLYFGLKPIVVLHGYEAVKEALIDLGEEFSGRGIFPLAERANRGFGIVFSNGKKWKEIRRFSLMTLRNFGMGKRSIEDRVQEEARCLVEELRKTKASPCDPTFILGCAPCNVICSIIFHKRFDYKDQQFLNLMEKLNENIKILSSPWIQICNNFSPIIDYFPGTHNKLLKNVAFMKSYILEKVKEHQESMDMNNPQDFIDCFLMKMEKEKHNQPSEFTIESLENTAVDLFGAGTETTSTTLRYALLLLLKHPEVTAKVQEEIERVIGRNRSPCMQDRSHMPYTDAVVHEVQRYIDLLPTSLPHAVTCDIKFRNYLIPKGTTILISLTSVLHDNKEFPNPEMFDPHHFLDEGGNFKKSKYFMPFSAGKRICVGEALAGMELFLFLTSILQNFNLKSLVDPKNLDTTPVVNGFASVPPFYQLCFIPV

[6] = biological target: T1, Cytochrome P450 3A4; assay: as §1, with “300” for “83.8”
[7] = biological target: T2, Cytochrome P450 2D6; assay: as §1, with “CYP2D6-mediated” for “CYP3A4-mediated”, “8.9” for “83.8”; type: ADME, cell-based
[8] = biological target: T2, Cytochrome P450 2D6; assay: as §1, with “CYP2D6-mediated” for “CYP3A4-mediated”, “44.4” for “83.8”; type: ADME, cell-based
[9] = biological target: T3, Cytochrome P450 2C9; assay: as §1, with “CYP2C9-mediated” for “CYP3A4-mediated”, “36.8” for “83.8”; type: ADME, cell-based
[10] = biological target: T2, Cytochrome P450 2D6; assay: as §1, with “CYP2D6-mediated” for “CYP3A4-mediated”, “132.2” for “83.8”; type: ADME, cell-based
[11] = biological target: T1, Cytochrome P450 3A4; assay: as §1, with “131.8” for “83.8”; type: ADME, cell-based
[12] = biological target: T3, Cytochrome P450 2C9; assay: as §1, with “CYP2C9-mediated” for “CYP3A4-mediated”, “139.9” for “83.8”; type: ADME, cell-based
[13] = biological target: T2, Cytochrome P450 2D6; assay: as §1, with “CYP2D6-mediated” for “CYP3A4-mediated”, “3.2” for “83.8”; type: ADME, cell-based
[14] = biological target: T3, Cytochrome P450 2C9; assay: as §1, with “CYP2C9-mediated” for “CYP3A4-mediated”, “12.1” for “83.8”; type: ADME, cell-based
[15] = biological target: T1, Cytochrome P450 3A4; assay: as §1, with “83.8 uM” left out; type: ADME, cell-based
[16] = biological target: T1, Cytochrome P450 3A4; assay: as §1, with “242.9” for “83.8”; type: ADME, cell-based
[17] = biological target: T2, Cytochrome P450 2D6; assay: as §1, with “CYP2D6-mediated” for “CYP3A4-mediated”, “139.7” for “83.8”; type: ADME, cell-based
[18] = biological target: T2, Cytochrome P450 2D6; assay: as §1, with “CYP2D6-mediated” for “CYP3A4-mediated”, “194” for “83.8”; type: ADME, cell-based
[19] = biological target: T1, Cytochrome P450 3A4; assay: as §1, with “36.8” for “83.8”; type: ADME, cell-based
[20] = biological target: T1, Cytochrome P450 3A4; assay: as §1, with “209.7” for “83.8”; type: ADME, cell-based
[21] = biological target: T2, Cytochrome P450 2D6; assay: as §1, with “CYP2D6-mediated” for “CYP3A4-mediated”, “156.7” for “83.8”; type: ADME, cell-based
[22] = biological target: T2, Cytochrome P450 2D6; assay: as §1, with “CYP2D6-mediated” for “CYP3A4-mediated”, “80.4” for “83.8”; type: ADME, cell-based
[23] = biological target: T1, Cytochrome P450 3A4; assay: as §1, with “68” for “83.8”; type: ADME, cell-based
[24] = biological target: T3, Cytochrome P450 2C9; assay: as §1, with “CYP2C9-mediated” for “CYP3A4-mediated”, “70.1” for “83.8”; type: ADME, cell-based
[25] = biological target: T1, Cytochrome P450 3A4; assay: as §1, with “137.9” for “83.8”; type: ADME, cell-based
[26] = biological target: T2, Cytochrome P450 2D6; assay: as §1, with “CYP2D6-mediated” for “CYP3A4-mediated”, “114.4” for “83.8”; type: ADME, cell-based
[27] = biological target: T2, Cytochrome P450 2D6; assay: as §1, with “CYP2D6-mediated” for “CYP3A4-mediated”, “300” for “83.8”
[28] = biological target: T1, Cytochrome P450 3A4; assay: as §1, with “6.5” for “83.8”; type: ADME, cell-based

OC(CCN1CCCCC1)(c1ccccc1)C1CC2C=CC1C2 (centres undefined) [BIPERIDEN]
fold change (FC) [1]: 3.6
fold change (FC) [2]: 1.6

CN(C)CCC(c1ccc(Br)cc1)c1ccccn1 (centres undefined) [BROMPHENIRAMINE]
fold change (FC) [3]: 2
fold change (FC) [4]: 43
FC [5]: 1

CN(C)CCC(c1ccc(Cl)cc1)c1ccccn1 (centres undefined) [CHLORPHENIRAMINE]
FC [6]: 1
fold change (FC) [7]: 33.6
FC [5]: 1

Clc1ccccc1C(c1ccccc1)(c1ccccc1)n1ccnc1 [CLOTRIMAZOLE]
fold change (FC) [8]: 0.9
fold change (FC) [9]: 1.1

CNCCCN1c2ccccc2CCc2ccccc21 [DESIPRAMINE]
fold change (FC) [10]: 0.7
fold change (FC) [11]: 0.7
fold change (FC) [12]: 0.7

C=C(CC)C(=O)c1ccc(OCC(=O)O)c(Cl)c1Cl [ETHACRYNIC ACID]
fold change (FC) [13]: 2.7
fold change (FC) [14]: 0.7
FC [15]: 3.7

Cc1nc(-c2ccc(OCC(C)C)c(C#N)c2)sc1C(=O)O [FEBUXOSTAT]
fold change (FC) [16]: 1.2
FC [5]: 1
fold change (FC) [17]: 2.1

CC(C)OC(=O)C(C)(C)Oc1ccc(C(=O)c2ccc(Cl)cc2)cc1 [FENOFIBRATE]
fold change (FC) [18]: 0.5
fold change (FC) [12]: 0.8
fold change (FC) [19]: 2.9

O=C(COc1ccc(Cl)cc1)N1CCN(Cc2ccc3c(c2)OCO3)CC1 [FIPEXIDE]
fold change (FC) [20]: 0.6
FC [5]: 0.4
fold change (FC) [21]: 0.8

CNCCC(Oc1ccc(C(F)(F)F)cc1)c1ccccc1 (centres undefined) [FLUOXETINE]
fold change (FC) [22]: 0.6
fold change (FC) [23]: 0.7
fold change (FC) [24]: 0.7

CC(C)NNC(=O)c1ccncc1 [IPRONIAZID]
fold change (FC) [25]: 2.2
fold change (FC) [26]: 2.6
FC [5]: 1

CC(CCc1ccccc1)NCC(O)c1ccc(O)c(C(N)=O)c1 (centres undefined) [LABETALOL]
FC [27]: 1
fold change (FC) [28]: 46
FC [5]: 1
